Patent US20070288088A1, “Drug eluting stent with a biodegradable release layer attached with an electro-grafted primer coating” (priority 2006, published 2007)

Assays:
[1] = test system: EC's as compared to SMC's; settings: EC's versus SMC's; cited from earlier work
[2] = test system: cells seeded in 96-well microplate; settings: control samples
Protocol: A potential cytotoxicity study of the electro-grafted coatings is conducted in accordance with the standard ISO 10993-5.
The extraction was performed in triplicate with the culture medium (DMEM) containing fetal calf serum, in sterile, closed, chemically inert containers during 96 h at 37° C.
The extract and its dilutions (50% and 10%) were placed on the cells and left in contact for 24 hours, at least. The cytotoxicity was determined by a vital dye, the neutral red.
The means of determination retained were the general morphology of the cell (qualitative evaluation) and the percentage of cell viability (quantitative evaluation) based on that the absorbance obtain by reading at 540 nm, is proportional to the number of living cells (quantitative analysis).
Positive control: the control was performed for each test with a product which provided a reproducible cytotoxic effect under the conditions of the test: a solution of phenol at 3.2 g/l in culture medium (DMEM). The test complied if the percentage of mortality was about 100%.
The test complied if the percentage of cell viability is 100%.

Row | Compound | Threshold toxic concentration [1] | Death % [2] [%] | Qualitative evaluation (neutral red) [2] | Viability % [2] [%]
1 | CC(=O)O[C@H]1C(=O)[C@@]2(C)[C@H]([C@H](OC(=O)c3ccccc3)[C@]3(O)C[C@H](OC(=O)[C@H](O)[C@@H](NC(=O)c4ccccc4)c4ccccc4)C(C)=C1C3(C)C)[C@]1(OC(C)=O)CO[C@@H]1C[C@@H]2O [Paclitaxel] | comparable or even lower against EC's as compared to SMC's |  |  | 
2 | Oc1ccccc1 [Positive control, phenol] |  | 99 | Cells don't | 1
3 | CO[C@H]1C[C@@H]2CC[C@@H](C)[C@@](O)(O2)C(=O)C(=O)N2CCCC[C@H]2C(=O)O[C@H]([C@H](C)C[C@@H]2CC[C@@H](O)[C@H](OC)C2)CC(=O)[C@H](C)/C=C(\C)[C@@H](O)[C@@H](OC)C(=O)[C@H](C)C[C@H](C)/C=C/C=C/C=C/1C [Sirolimus] | comparable or even lower against EC's as compared to SMC's |  |  | 
